Measurements published in patent US9127303B2, “Method for detection of beta-D-glucuronidase activity in a sample” (Biosynth AG, priority 2011, dated 2015).

How the values were obtained:
Acinetobacter baumanii = test: Detection of microbial beta-D-glucuronidase in broth cultures in test tubes; type: cell-based; parameters: key: positive (pink colour); negative (yellow colour); details: 1 strain, NB, 0.1 mM, 37° C., 16 hours
Protocol: (§1) Resorufin-beta-D-glucuronic acid or Resorufin-beta-D-glucuronic acid methyl ester was added to test tubes containing 3 ml of Nutrient Broth (NB: 5 g/l peptone, 5 g/l NaCl, 2 g/l yeast extract, 1 g/l beef extract, pH 7.4) or Tryptone Bile Broth (TBB: 20 g/l tryptone, 1.5 g/l bile salts No. 3) at a concentration of 0.1 mM. Tubes were inoculated with cultures pregrown over night on NB and incubated at 37° C. for 16 hours. Tubes were scored visually for beta-D-glucuronidase activity as positive (pink colour) or negative (yellow colour). Both substrates gave the same results for all strains tested (Table 1), showing that the Resorufin-beta-D-glucuronic acid methyl ester can be used in place of the Resorufin-beta-D-glucuronic acid for detection of E. coli.

Aeromonas hydrophila = test: as above; type: cell-based; parameters: key: positive (pink colour); negative (yellow colour); details: 1 strain, TBB, 0.1 mM, 37° C., 16 hours
Protocol: as §1

Bacillus cereus = test: as above; type: cell-based; parameters: key: positive (pink colour); negative (yellow colour); details: 1 strain, NB, 0.1 mM, 37° C., 16 hours
Protocol: as §1

Citrobacter freundii = test: as above; type: cell-based; parameters: key: positive (pink colour); negative (yellow colour); details: 1 strain, TBB, 0.1 mM, 37° C., 16 hours
Protocol: as §1

Enterobacter aerogenes = test: as above; type: cell-based; parameters: key: positive (pink colour); negative (yellow colour); details: 1 strain, TBB, 0.1 mM, 37° C., 16 hours
Protocol: as §1

Enterobacter cloacae = test: as above; type: cell-based; parameters: key: positive (pink colour); negative (yellow colour); details: 1 strain, NB, 0.1 mM, 37° C., 16 hours
Protocol: as §1

Enterococcus faecalis = test: as above; type: cell-based; parameters: key: positive (pink colour); negative (yellow colour); details: 1 strain, TBB, 0.1 mM, 37° C., 16 hours
Protocol: as §1

Escherichia coli O157:H7 = test: as above; type: cell-based; parameters: key: positive (pink colour); negative (yellow colour); details: Escherichia coli O157:H7, 2 strains, TBB, 0.1 mM, 37° C., 16 hours
Protocol: as §1

Escherichia coli = test: as above; type: cell-based; parameters: key: positive (pink colour); negative (yellow colour); details: 19 strains, TBB, 0.1 mM, 37° C., 16 hours
Protocol: as §1

Hafnia alvei = test: as above; type: cell-based; parameters: key: positive (pink colour); negative (yellow colour); details: 1 strain, NB, 0.1 mM, 37° C., 16 hours
Protocol: as §1

Klebsiella pneumoniae = test: as above; type: cell-based; parameters: key: positive (pink colour); negative (yellow colour); details: 1 strain, TBB, 0.1 mM, 37° C., 16 hours
Protocol: as §1

Proteus vulgaris = test: as above; type: cell-based; parameters: key: positive (pink colour); negative (yellow colour); details: 1 strain, NB, 0.1 mM, 37° C., 16 hours
Protocol: as §1

Pseudomonas aeruginosa = test: as above; type: cell-based; parameters: key: positive (pink colour); negative (yellow colour); details: 1 strain, TBB, 0.1 mM, 37° C., 16 hours
Protocol: as §1

Salmonella Enteritidis = test: as above; type: cell-based; parameters: key: positive (pink colour); negative (yellow colour); details: 1 strain, TBB, 0.1 mM, 37° C., 16 hours
Protocol: as §1

Salmonella Typhimurium = test: as above; type: cell-based; parameters: key: positive (pink colour); negative (yellow colour); details: 1 strain, NB, 0.1 mM, 37° C., 16 hours
Protocol: as §1

Serratia marcescens = test: as above; type: cell-based; parameters: key: positive (pink colour); negative (yellow colour); details: 1 strain, TBB, 0.1 mM, 37° C., 16 hours
Protocol: as §1

Staphylococcus aureus = test: as above; type: cell-based; parameters: key: positive (pink colour); negative (yellow colour); details: 1 strain, NB, 0.1 mM, 37° C., 16 hours
Protocol: as §1

[1] = test system: Staphylococcus haemolyticus; test: as above; type: cell-based; parameters: key: positive (pink colour); negative (yellow colour); details: 1 strain, NB, 0.1 mM, 37° C., 16 hours
Protocol: as §1

Vibrio parahaemolyticus = test: as above; type: cell-based; parameters: key: positive (pink colour); negative (yellow colour); details: 1 strain, NB, 0.1 mM, 37° C., 16 hours
Protocol: as §1

Yersinia enterocolitica = test: as above; type: cell-based; parameters: key: positive (pink colour); negative (yellow colour); details: 1 strain, NB, 0.1 mM, 37° C., 16 hours
Protocol: as §1

[2] = test system: beta-D-glucuronidase positive strains (Escherichia coli); test: Detection of microbial beta-D-glucuronidase activity in broth cultures in microtiter plates; type: cell-based; details: NB, 0.1 mM, 37° C., 20 hours; for Fluorescence (excitation 570 nm, emission 600 nm) over time: about 10 cfu
Protocol: (§2) Fluorescence in arbitrary units (RFU, relative fluorescence units) is plotted vs. time (h).
(§3) Wells of a microtiter plate were filled with Nutrient Broth (NB: 5 g/l peptone, 5 g/l NaCl, 2 g/l yeast extract, 1 g/l beef extract, pH 7.4) containing Resorufin-beta-D-glucuronic acid or Resorufin-beta-D-glucuronic acid methyl ester at concentrations of 0.1 mM. The wells were inoculated with about 10 cfu of cultures pregrown over night on NB and incubated at 37° C. for 20 hours. Fluorescence was measured every 20 minutes at an excitation wavelength of 570 nm and an emission wavelength of 600 nm (FIG. 1).

[3] = test system: beta-D-glucuronidase negative strains; test: as above; type: cell-based, Citrobacter freundii, Salmonella enteritidis; details: NB, 0.1 mM, 37° C., 20 hours
Protocol: as §2, §3

[4] = target: beta-D-glucuronidase (type VII-A from E. coli) (Escherichia coli, UniProt P05804); test: Enzymatic assay with purified beta-D-glucuronidase; type: biochemical; details: 0.1 mM, pH 6.8, 37° C., 1 hour
Sequence of beta-D-glucuronidase (type VII-A from E. coli) (P05804 whole entry): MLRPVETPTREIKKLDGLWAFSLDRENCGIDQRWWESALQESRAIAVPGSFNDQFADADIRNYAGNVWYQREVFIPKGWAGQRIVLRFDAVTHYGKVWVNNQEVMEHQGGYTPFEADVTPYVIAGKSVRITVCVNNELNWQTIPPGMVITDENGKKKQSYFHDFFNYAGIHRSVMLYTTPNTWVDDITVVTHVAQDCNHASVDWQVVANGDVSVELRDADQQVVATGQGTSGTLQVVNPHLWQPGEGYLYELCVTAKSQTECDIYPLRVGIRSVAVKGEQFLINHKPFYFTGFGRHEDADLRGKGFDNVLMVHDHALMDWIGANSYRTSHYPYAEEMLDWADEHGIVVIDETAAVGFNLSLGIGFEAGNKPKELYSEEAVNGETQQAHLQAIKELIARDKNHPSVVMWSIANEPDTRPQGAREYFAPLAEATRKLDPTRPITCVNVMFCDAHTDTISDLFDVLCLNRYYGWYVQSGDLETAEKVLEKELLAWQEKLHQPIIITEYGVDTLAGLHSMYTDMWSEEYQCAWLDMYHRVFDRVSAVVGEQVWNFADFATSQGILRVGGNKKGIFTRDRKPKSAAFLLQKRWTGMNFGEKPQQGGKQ
Protocol: (§4) Resorufin-beta-D-glucuronic acid or Resorufin-beta-D-glucuronic acid methyl ester was incubated in presence of glucuronidase, esterase, both enzymes or without enzyme. Measurements were done in microtiter plates at 37° C. in a Spectramax M5 platereader (λex=570 nm, λem=600 nm). Fluorescence in arbitrary units (RFU, relative fluorescence units) is plotted vs. time (min).
(§5) Wells of a microtiter plate were filled with buffer (35 mM potassium phosphate, 4.7 mg/ml bovine serum albumin, pH 6.8) containing Resorufin-beta-D-glucuronic acid or Resorufin-beta-D-glucuronic acid methyl ester at concentrations of 0.1 mM. To the wells were added either a) 0.3 unit beta-D-glucuronidase (type VII-A from E. coli) or b) 10 units esterase (from porcine liver) or c) 0.3 unit beta-D-glucuronidase and 10 units esterase or d) no enzyme. The microtiter plate was incubated at 37° C. for 1 hour. Fluorescence was measured every 1.5 minutes at an excitation wavelength of 570 nm and an emission wavelength of 600 nm (FIG. 2).

[5] = test system: esterase (from porcine liver); test: Enzymatic assay with esterase only; type: biochemical; details: 10 units esterase only, 0.1 mM, pH 6.8, 37° C., 1 hour
Protocol: as §4, §5

E. coli culture = test: Detection of microbial beta-D-glucuronidase in preincubated medium; type: cell-based; details: NB with 0.2 mM, preincubated 21 h, 3.5 h, 0 h at 37° C., E. coli about 10^8 cfu/ml
Protocol: The media with the Resorufin-beta-D-glucuronic acid methyl ester were preincubated for different time periods. Measurements were done in microtiter plates at 37° C. in a Spectramax M5 platereader (λex=570 nm, λem=600 nm). Fluorescence in arbitrary units (RFU, relative fluorescence units) is plotted vs. time (min).
(§6) Wells of a microtiter plate were filled with 100 μl Nutrient Broth (NB: 5 g/l peptone, 5 g/l NaCl, 2 g/l yeast extract, 1 g/l beef extract, pH 7.4) containing Resorufin-beta-D-glucuronic acid or Resorufin-beta-D-glucuronic acid methyl ester at concentrations of 0.2 mM. The wells were incubated for different times (21 h, 3.5 h, 0 h) at 37° C. After incubation, 100 μl of an E. coli culture pregrown over night on NB was added (about 10^8 cfu/ml). Fluorescence was measured every 1.5 minutes at an excitation wavelength of 570 nm and an emission wavelength of 600 nm (FIG. 3). The longer the preincubation time of the medium, the more Resorufin-beta-D-glucuronic acid originated from the Resorufin-beta-D-glucuronic acid methyl ester through hydrolysis.

[6] = Hydrolysis of the methyl ester in Nutrient Broth medium; type: physicochemical; details: pH 7.4, 37° C.
Protocol: as §6

[7] = 0.3 unit beta-D-glucuronidase and 10 units esterase
[8] = 0.3 unit beta-D-glucuronidase without esterase

Compound | Result, beta-D-glucuronidase activity scored visually (Acinetobacter baumanii) | Result, beta-D-glucuronidase activity scored visually (Aeromonas hydrophila) | Result, beta-D-glucuronidase activity scored visually (Bacillus cereus) | Result, beta-D-glucuronidase activity scored visually (Citrobacter freundii) | Result, beta-D-glucuronidase activity scored visually (Enterobacter aerogenes) | Result, beta-D-glucuronidase activity scored visually (Enterobacter cloacae) | Result, beta-D-glucuronidase activity scored visually (Enterococcus faecalis) | Result, beta-D-glucuronidase activity scored visually (Escherichia coli O157:H7) | Result, beta-D-glucuronidase activity scored visually (Escherichia coli) | Result, beta-D-glucuronidase activity scored visually (Hafnia alvei) | Result, beta-D-glucuronidase activity scored visually (Klebsiella pneumoniae) | Result, beta-D-glucuronidase activity scored visually (Proteus vulgaris) | Result, beta-D-glucuronidase activity scored visually (Pseudomonas aeruginosa) | Result, beta-D-glucuronidase activity scored visually (Salmonella Enteritidis) | Result, beta-D-glucuronidase activity scored visually (Salmonella Typhimurium) | Result, beta-D-glucuronidase activity scored visually (Serratia marcescens) | Result, beta-D-glucuronidase activity scored visually (Staphylococcus aureus) | Result, beta-D-glucuronidase activity scored visually [1] | Result, beta-D-glucuronidase activity scored visually (Vibrio parahaemolyticus) | Result, beta-D-glucuronidase activity scored visually (Yersinia enterocolitica) | also measured
COC(=O)[C@H]1O[C@@H](Oc2ccc3nc4ccc(=O)cc-4oc3c2)[C@H](O)[C@@H](O)[C@@H]1O [Resorufin-beta-D-glucuronic acid methyl ester] | negative | negative | negative | negative | negative | negative | negative | negative | positive | negative | negative | negative | negative | negative | negative | negative | negative | negative | negative | negative | Speed of increase in fluorescence compared with Resorufin-beta-D-glucuronic acid [2]: a little slower; Fluorescence (excitation 570 nm, emission 600 nm) over time [2]: increase in fluorescence; Fluorescence (excitation 570 nm, emission 600 nm) over time [3]: only low background signal; Fluorescence (excitation 570 nm, emission 600 nm) over time [4, 7]: fast increase of fluorescence; Fluorescence (excitation 570 nm, emission 600 nm) over time [4, 8]: only a slow increase of fluorescence; Fluorescence (excitation 570 nm, emission 600 nm) over time [5]: low background signal; Fluorescence signal after adding E. coli culture, compared with Resorufin-beta-D-glucuronic acid medium (E. coli culture): gets closer to the signal from media originally containing the Resorufin-beta-D-glucuronic acid with longer preincubation time; Hydrolysis of the methyl ester to Resorufin-beta-D-glucuronic acid in medium [6]: surprisingly fast
O=C([O-])C1OC(Oc2ccc3nc4ccc(=O)cc-4oc3c2)C(O)C(O)C1O.[Na+] [Resorufin-beta-D-glucuronic acid, reference compound] | negative | negative | negative | negative | negative | negative | negative | negative | positive | negative | negative | negative | negative | negative | negative | negative | negative | negative | negative | negative | Fluorescence (excitation 570 nm, emission 600 nm) over time [2]: increase in fluorescence; Fluorescence (excitation 570 nm, emission 600 nm) over time [3]: only low background signal; Fluorescence (excitation 570 nm, emission 600 nm) over time [4, 7]: fast increase of fluorescence; Fluorescence (excitation 570 nm, emission 600 nm) over time [4, 8]: fast increase of fluorescence; Fluorescence (excitation 570 nm, emission 600 nm) over time [5]: low background signal
